From patent publication US9029546B2, “Pyrazolopyridine kinase inhibitors” (Vertex Pharmaceuticals Incorporated, priority 2008, dated 2015)

What was measured:
[1] = biological target: PKC Delta (Homo sapiens, UniProt Q05655); test: PKC delta coupled-enzyme kinase assay (NADH consumption); type: biochemical; details: 240 μM ATP, 30° C.
Experimental: [The source words this procedure for another target and reports this target under the same test.] (§1) An assay buffer solution was prepared which consisted of 100 mM HEPES (pH 7.5), 10 mM MgCl2, 25 mM NaCl, 0.1 mM EDTA and 0.01% Brij. An enzyme buffer containing reagents to final assay concentrations of 0.00001% Triton X-100, 200 μg/mL Phosphatidylserine, 20 μg/mL Diacylglycerol, 360 μM NADH, 3 mM phosphoenolpyruvate, 70 μg/mL pyruvate kinase, 24 μg/mL lactate dehydrogenase, 2 mM DTT, 100 μM substrate peptide (ERMRPRKRQGSVRRRV (SEQ ID NO: 1)) and 18 nM PKC theta kinase was prepared in assay buffer. To 60 μL of this enzyme buffer, in a 384 well plate, was added 2 μL of VRT stock solution in DMSO. The mixture was allowed to equilibrate for 10 mins at 30° C. The enzyme reaction was initiated by the addition of 5 μL stock ATP solution prepared in assay buffer to a final assay concentration of 240 μM. Initial rate data was determined from the rate of change of absorbance at 340 nm (corresponding to stoichiometric consumption of NADH) using a Molecular Devices Spectramax plate reader (Sunnyvale, Calif.) over 15 mins at 30° C. For each Ki determination 12 data points covering the VRT concentration range of 0-20 μM were obtained in duplicate (DMSO stocks were prepared from an initial 10 mM VRT stock with subsequent 1:2 serial dilutions). Ki values were calculated from initial rate data by non-linear regression using the Prism software package (Prism 4.0a, Graphpad Software, San Diego, Calif.).

[2] = biological target: PKC theta kinase (Homo sapiens, UniProt Q04759); test: PKC theta coupled-enzyme kinase assay (NADH consumption); type: biochemical; details: 240 μM ATP, 30° C.
Experimental: as §1

Sequence of PKC Delta (Q05655 whole entry): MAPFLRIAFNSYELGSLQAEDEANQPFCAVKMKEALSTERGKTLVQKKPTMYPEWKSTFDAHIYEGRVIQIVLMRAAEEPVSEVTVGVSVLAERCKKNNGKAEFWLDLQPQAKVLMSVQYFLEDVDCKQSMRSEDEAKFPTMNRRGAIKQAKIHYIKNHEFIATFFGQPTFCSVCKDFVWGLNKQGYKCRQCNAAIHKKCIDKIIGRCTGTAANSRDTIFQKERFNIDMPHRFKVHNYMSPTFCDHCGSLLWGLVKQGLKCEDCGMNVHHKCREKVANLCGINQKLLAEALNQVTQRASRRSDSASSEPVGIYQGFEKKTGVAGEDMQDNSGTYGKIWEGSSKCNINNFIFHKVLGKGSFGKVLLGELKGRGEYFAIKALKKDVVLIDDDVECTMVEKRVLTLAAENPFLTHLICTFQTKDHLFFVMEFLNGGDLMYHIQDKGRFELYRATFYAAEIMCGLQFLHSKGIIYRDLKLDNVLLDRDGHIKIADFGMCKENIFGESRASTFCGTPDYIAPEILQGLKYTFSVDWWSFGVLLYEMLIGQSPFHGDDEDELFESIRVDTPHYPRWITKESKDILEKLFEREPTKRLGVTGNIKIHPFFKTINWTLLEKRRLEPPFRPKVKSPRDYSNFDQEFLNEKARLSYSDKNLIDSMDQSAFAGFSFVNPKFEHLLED
Sequence of PKC theta kinase (Q04759 whole entry): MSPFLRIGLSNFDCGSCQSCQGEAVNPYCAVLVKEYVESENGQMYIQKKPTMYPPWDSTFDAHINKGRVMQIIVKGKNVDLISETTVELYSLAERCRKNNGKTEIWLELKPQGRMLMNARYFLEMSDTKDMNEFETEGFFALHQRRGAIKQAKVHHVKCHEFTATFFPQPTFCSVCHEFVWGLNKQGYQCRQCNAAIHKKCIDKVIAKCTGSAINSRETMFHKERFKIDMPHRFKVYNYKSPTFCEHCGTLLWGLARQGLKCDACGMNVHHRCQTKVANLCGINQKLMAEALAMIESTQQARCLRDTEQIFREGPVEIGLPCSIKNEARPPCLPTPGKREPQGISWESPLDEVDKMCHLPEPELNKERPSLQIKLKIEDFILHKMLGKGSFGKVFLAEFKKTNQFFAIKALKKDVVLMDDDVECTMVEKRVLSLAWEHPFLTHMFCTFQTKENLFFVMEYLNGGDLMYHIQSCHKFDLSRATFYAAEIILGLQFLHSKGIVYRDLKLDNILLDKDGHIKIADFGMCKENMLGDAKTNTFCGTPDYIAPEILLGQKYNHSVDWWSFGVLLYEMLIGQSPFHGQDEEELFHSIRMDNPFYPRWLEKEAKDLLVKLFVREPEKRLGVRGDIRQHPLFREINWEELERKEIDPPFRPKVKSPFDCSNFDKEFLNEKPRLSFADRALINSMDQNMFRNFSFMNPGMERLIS

SMILES | Ki [1] | Ki [2]
CN(C)C(C)(C)COc1ccc(C(F)(F)F)c(-c2n[nH]c3ncccc23)n1 [Compound 52] | > 700 nM | > 700 nM
CC(O)CNc1ccc(C(F)(F)F)c(-c2n[nH]c3ncccc23)n1 (stereo not shown) [Compound 53] | > 700 nM | > 700 nM
CC(C)(CN)COc1ccc(C(F)(F)F)c(-c2n[nH]c3ncccc23)n1 [Compound 54] | > 700 nM | > 700 nM
CN1CCCC(COc2ccc(C(F)(F)F)c(-c3n[nH]c4ncccc34)n2)C1 (stereo not shown) [Compound 55] | > 700 nM | > 700 nM
CCN1CCC(Oc2ccc(C(F)(F)F)c(-c3n[nH]c4ncccc34)n2)C1 (stereo not shown) [Compound 56] | > 700 nM | > 700 nM
CC(N)(CO)COc1ccc(C(F)(F)F)c(-c2n[nH]c3ncccc23)n1 (stereo not shown) [Compound 57] | > 700 nM | > 700 nM
CN(CCO)c1ccc(C(F)(F)F)c(-c2n[nH]c3ncccc23)n1 [Compound 58] | > 700 nM | > 700 nM
NC1CCC(Oc2ccc(C(F)(F)F)c(-c3n[nH]c4ncccc34)n2)CC1 (stereo not shown) [Compound 59] | > 700 nM | > 700 nM
FC(F)(F)c1ccc(NCCN2CCCC2)nc1-c1n[nH]c2ncccc12 [Compound 60] | > 700 nM | > 700 nM
NC1CCCC(Nc2cccc(-c3n[nH]c4ncccc34)n2)C1 (stereo not shown) [Compound 61] | < 50 nM | < 50 nM
N#CCNc1ccc(C(F)(F)F)c(-c2n[nH]c3ncccc23)n1 [Compound 62] | > 700 nM | > 700 nM
FC(F)(F)c1ccc(NC2CNC2)nc1-c1n[nH]c2ncccc12 [Compound 63] | > 700 nM | > 700 nM
Fc1ccc(NC2CNC2)nc1-c1n[nH]c2ncccc12 [Compound 64] | > 700 nM | > 700 nM
CCC(CN)(CNc1ccc(C(F)(F)F)c(-c2n[nH]c3ncccc23)n1)c1ccccc1 (stereo not shown) [Compound 65] | < 500 nM | < 500 nM
FC(F)(F)c1ccc(NCC2CNC2)nc1-c1n[nH]c2ncccc12 [Compound 66] | > 700 nM | > 700 nM

Second part, the molecule after the results:

Ki [1] | Ki [2] | SMILES
< 50 nM | < 50 nM | CC(C)CC1(CNc2ccc(C(F)(F)F)c(-c3n[nH]c4ncccc34)n2)CNC1 [Compound 67]
< 50 nM | < 50 nM | CC(C)CC1(CNc2ccc(F)c(-c3n[nH]c4ncccc34)n2)CNC1 [Compound 68]
> 700 nM | > 700 nM | CCN1CCCC(Oc2ccc(C(F)(F)F)c(-c3n[nH]c4ncccc34)n2)C1 (stereo not shown) [Compound 69]
< 500 nM | < 500 nM | Nc1cc(Cl)cc(Nc2ccc(C(F)(F)F)c(-c3n[nH]c4ncccc34)n2)c1 [Compound 70]
> 700 nM | > 700 nM | FC(F)(F)c1ccc(NC2CN3CCC2CC3)nc1-c1n[nH]c2ncccc12 (stereo not shown) [Compound 71]
> 700 nM | > 700 nM | CC(C)(C)[C@H](N)COc1ccc(C(F)(F)F)c(-c2n[nH]c3ncccc23)n1 [Compound 72]
> 700 nM | > 700 nM | CC(CO)Nc1ccc(C(F)(F)F)c(-c2n[nH]c3ncccc23)n1 (stereo not shown) [Compound 73]
> 700 nM | > 700 nM | FC(F)(F)c1ccc(OC[C@@H]2CCCN3CCCC[C@@H]23)nc1-c1n[nH]c2ncccc12 [Compound 74]
< 500 nM | < 500 nM | CN(CCC#N)c1ccc(C(F)(F)F)c(-c2n[nH]c3ncccc23)n1 [Compound 75]
> 700 nM | > 700 nM | OCCN(CCO)c1ccc(C(F)(F)F)c(-c2n[nH]c3ncccc23)n1 [Compound 76]
> 700 nM | > 700 nM | OC[C@H](Cc1ccccc1)Nc1ccc(C(F)(F)F)c(-c2n[nH]c3ncccc23)n1 [Compound 77]
> 700 nM | > 700 nM | OCc1cccc(Nc2ccc(C(F)(F)F)c(-c3n[nH]c4ncccc34)n2)c1 [Compound 78]
< 500 nM | < 500 nM | OC[C@H](Nc1ccc(C(F)(F)F)c(-c2n[nH]c3ncccc23)n1)c1ccccc1 [Compound 79]
> 700 nM | > 700 nM | CCC(CO)Nc1ccc(C(F)(F)F)c(-c2n[nH]c3ncccc23)n1 (stereo not shown) [Compound 80]
> 700 nM | > 700 nM | O[C@H]1CC[C@H](Nc2ccc(C(F)(F)F)c(-c3n[nH]c4ncccc34)n2)CC1 [Compound 81]
> 700 nM | > 700 nM | OCCNc1ccc(C(F)(F)F)c(-c2n[nH]c3ncccc23)n1 [Compound 82]
> 700 nM | > 700 nM | CCC(O)CNc1ccc(C(F)(F)F)c(-c2n[nH]c3ncccc23)n1 (stereo not shown) [Compound 83]
> 700 nM | > 700 nM | OC1CCCCC1Nc1ccc(C(F)(F)F)c(-c2n[nH]c3ncccc23)n1 (stereo not shown) [Compound 84]
> 700 nM | > 700 nM | FC(F)(F)c1ccc(N[C@@H]2CCc3ccccc32)nc1-c1n[nH]c2ncccc12 [Compound 85]
> 700 nM | > 700 nM | CC[C@H](CO)Nc1ccc(C(F)(F)F)c(-c2n[nH]c3ncccc23)n1 [Compound 86]
